The experiment concerns the target T1, recombinant human ALX receptor (Homo sapiens, UniProt P25090).
T1 construct: expressed in transfected cells; host or cells: HEK293 (HEK293-hALXR-Gα16)
T1 sequence (P25090 1-351): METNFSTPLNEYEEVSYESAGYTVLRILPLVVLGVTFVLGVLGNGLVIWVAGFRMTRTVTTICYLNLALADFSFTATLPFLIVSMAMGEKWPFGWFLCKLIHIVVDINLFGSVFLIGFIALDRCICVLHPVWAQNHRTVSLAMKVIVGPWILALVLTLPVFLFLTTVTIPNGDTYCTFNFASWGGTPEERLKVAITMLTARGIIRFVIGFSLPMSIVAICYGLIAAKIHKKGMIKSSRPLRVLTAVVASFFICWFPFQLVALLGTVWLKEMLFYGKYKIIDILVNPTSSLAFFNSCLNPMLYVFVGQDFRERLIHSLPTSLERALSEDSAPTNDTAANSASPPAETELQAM
The experiment in a line: Intracellular calcium measurements (FLIPR), ALX receptor agonistic activity. It is filed as cell-based. The following applies: HEK293-hALXR-Gα16 cells, Fluo-4 calcium signal, normalized to WKYMVm 10 nM. The protocol: The ALX receptor agonistic activity of the compounds of formula (I) is determined in accordance with the following experimental method.
Intracellular Calcium Measurements:
Cells expressing recombinant human ALX receptor and the G-protein Gα16 (HEK293-hALXR-Gα16) were grown to 80% confluency in Growing Medium (GM). Cells were detached from culture dishes with a cell dissociation buffer (Invitrogen, 13151-014), and collected by centrifugation at 1′000 rpm at rt for 5 min in Assay Buffer (AB) (equal parts of Hank's BSS (Gibco, 14065-049) and DMEM without Phenol Red (Gibco, 11880-028)). After 60 min incubation at 37° C. under 5% CO2 in AB supplemented with 1 μM Fluo-4 (AM) (Invitrogen, F14202) and 20 mM HEPES (Gibco, 15630-056), the cells were washed and resuspended in AB. They were then seeded onto 384-well FLIPR assay plates (Greiner, 781091) at 50′000 cells in 70 μl per well and sedimented by centrifugation at 1′000 rpm for 1 min. Stock solutions of test compounds were made up at a concentration of 10 mM in DMSO, and serially diluted in AB to concentrations required for activation dose response curves. WKYMVm (Phoenix Peptides) was used as a reference agonist. A FLIPR Tetra instrument (Molecular Devices) was operated according to the manufacturer's standard instructions, adding 4 μl of test compound dissolved at 10 mM in DMSO and diluted prior to the experiment in assay buffer to obtain the desired final concentration. Changes in fluorescence were monitored before and after the addition of test compounds at lex=488 nm and lem=540 nm. Emission peak values above base level after compounds addition were exported after base line subtraction. Values were normalized to high-level control (WKYMVm compound, 10 nM final concentration) after subtraction of the base line value (AB addition).
Background: Calcium flux is commonly read through the fluorescence of an indicator in the cells.

Each structure is given as a SMILES string.

What is called EC50 is the concentration that produces a half-maximal response.

On to `Cc1ccc2nc([C@@H](Cc3ccc(Br)cc3)NC(=O)N[C@H]3CC[C@H](O)CC3)[nH]c2c1` [Example 221, 1-((R)-2-(4-Bromophenyl)-1-(6-methyl-1H-benzo[d]imidazol-2-yl)ethyl)-3-(trans-4-hydroxycyclohexyl)urea], for which the 50% effective concentration (EC50) was 0.004 µM. To `COc1ccc(C[C@@H](NC(=O)NCC2CCN(C)CC2)c2nc3ccccc3[nH]2)cc1` [Example 147, (R)-1-(1-(1H-Benzo[d]imidazol-2-yl)-2-(4-methoxyphenyl)ethyl)-3-((1-methylpiperidin-4-yl)methyl)urea] belongs 0.493 µM; to `C[C@]1(O)CC[C@H](NC(=O)NC(Cc2ccc(Br)cc2F)c2nc3ccccc3[nH]2)CC1` (mixture of isomers) [Example 253, 1-(1-(1H-Benzo[d]imidazol-2-yl)-2-(4-bromo-2-fluorophenyl)ethyl)-3-(trans-4-hydroxy-4-methylcyclohexyl)urea], 0.025 µM; to `COc1ccc(C[C@@H](NC(=O)NCc2ccccc2COC(C)C)c2nc3ccccc3[nH]2)cc1` [Example 58, (R)-1-(1-(1H-Benzo[d]imidazol-2-yl)-2-(4-methoxyphenyl)ethyl)-3-(2-(isopropoxymethyl)benzyl)urea], 0.023 µM. To `COc1ccc(CC(NC(=O)NC23CCC(O)(CC2)CC3)c2nc3ccc(F)cc3[nH]2)c(F)c1` (single isomer, unassigned; ent-2) [Example 398, 1-(1-(6-Fluoro-1H-benzo[d]imidazol-2-yl)-2-(2-fluoro-4-methoxyphenyl)ethyl)-3-(4-hydroxybicyclo[2.2.2]octan-1-yl)urea (ent-2)] belongs 2.62 µM.

With `COc1ccc(CC(NC(=O)NCC(F)(F)F)c2nc3ccccc3[nH]2)cc1` (centres unmarked) [Example 9, 1-(1-(1H-Benzo[d]imidazol-2-yl)-2-(4-methoxyphenyl)ethyl)-3-(2,2,2-trifluoroethyl)urea], the EC50 is 0.45 µM. As for `O=C(N[C@H](Cc1ccc(C(F)(F)F)cc1)c1nc2cc(F)ccc2[nH]1)N[C@H]1CC[C@H](O)CC1` [Example 265, 1-((R)-1-(5-Fluoro-1H-benzo[d]imidazol-2-yl)-2-(4-(trifluoromethyl)phenyl)ethyl)-3-(trans-4-hydroxycyclohexyl)urea], the figure is 0.0047 µM. To `COc1c(F)c(F)c(CC(NC(=O)N[C@H]2CC[C@H](O)CC2)c2nc3ccccc3[nH]2)c(F)c1F` (single isomer, unassigned; ent-1) [Example 312, 1-(1-(1H-Benzo[d]imidazol-2-yl)-2-(2,3,5,6-tetrafluoro-4-methoxyphenyl)ethyl)-3-(trans-4-hydroxycyclohexyl)urea (ent-1)] belongs 0.022 µM. As for `COc1ccc(C[C@@H](NC(=O)Nc2cccc(OC)c2)c2nc3ccccc3[nH]2)cc1` [Example 177, (R)-1-(1-(1H-Benzo[d]imidazol-2-yl)-2-(4-methoxyphenyl)ethyl)-3-(3-methoxyphenyl)urea], the figure is 0.247 µM; as for `COc1ccc(C[C@@H](NC(=O)NC(c2ccccn2)C(F)(F)F)c2nc3ccccc3[nH]2)cc1` (stereo partly drawn) [Example 292, 1-((R)-1-(1H-Benzo[d]imidazol-2-yl)-2-(4-methoxyphenyl)ethyl)-3-(2,2,2-trifluoro-1-(pyridin-2-yl)ethyl)urea], 0.081 µM; as for `COc1ccc(C[C@@H](NC(=O)N[C@@H]2CCCC[C@H]2C(N)=O)c2nc3ccccc3[nH]2)cc1` (relative stereo) [Example 163, (1R*,2R*)-2-(3-((R)-1-(1H-Benzo[d]imidazol-2-yl)-2-(4-methoxyphenyl)ethyl)ureido)cyclohexanecarboxamide], 0.12 µM. For `COc1ccc(C[C@@H](NC(=O)N[C@H]2CC[C@@H](O)CC2)c2nc3ccccc3[nH]2)cc1` [Example 183, 1-((R)-1-(1H-Benzo[d]imidazol-2-yl)-2-(4-methoxyphenyl)ethyl)-3-(cis-4-hydroxycyclohexyl)urea], the EC50 was 0.058 µM. As for `COc1ccc(C[C@@H](NC(=O)N[C@H]2CC[C@H](O)c3ccccc32)c2nc3ccccc3[nH]2)cc1` (relative stereo) [Example 134, 1-((R)-1-(1H-Benzo[d]imidazol-2-yl)-2-(4-methoxyphenyl)ethyl)-3-((1 S*,4S*)-4-hydroxy-1,2,3,4-tetrahydronaphthalen-1-yl)urea], the figure is 0.107 µM; as for `COc1ccc(C[C@@H](NC(=O)NC(CCO)c2ccccc2)c2nc3ccccc3[nH]2)cc1` (stereo partly drawn) [Example 343, 1-((R)-1-(1H-Benzo[d]imidazol-2-yl)-2-(4-methoxyphenyl)ethyl)-3-(3-hydroxy-1-phenylpropyl)urea], 0.04 µM; as for `O=C(NC(Cc1ccc(Br)c(F)c1)c1nc2ccc(F)cc2[nH]1)NC12CCC(O)(CC1)CC2` (single isomer, unassigned; ent-1) [Example 400, 1-(2-(4-bromo-3-fluorophenyl)-1-(6-fluoro-1H-benzo[d]imidazol-2-yl)ethyl)-3-(4-hydroxybicyclo[2.2.2]octan-1-yl)urea (ent-1)], 0.0026 µM. To `COc1ccc(C[C@@H](NC(=O)N[C@@H]2CCN(C(=O)OC(C)(C)C)C2)c2nc3ccccc3[nH]2)cc1` [Example 118, (R)-tert-Butyl 3-(3-((R)-1-(1H-benzo[d]imidazol-2-yl)-2-(4-methoxyphenyl)ethyl)ureido)pyrrolidine-1-carboxylate] belongs 0.025 µM; to `COc1ccc(C[C@@H](NC(=O)Nc2ccc(OC)cc2)c2nc3ccccc3[nH]2)cc1` [Example 104, (R)-1-(1-(1H-Benzo[d]imidazol-2-yl)-2-(4-methoxyphenyl)ethyl)-3-(4-methoxyphenyl)urea], 0.257 µM; to `CCC[C@@H](NC(=O)N[C@H](Cc1ccc(OC)cc1)c1nc2ccccc2[nH]1)c1ccccc1` [Example 335, 1-((R)-1-(1H-Benzo[d]imidazol-2-yl)-2-(4-methoxyphenyl)ethyl)-3-((R)-1-phenylbutyl)urea], 0.372 µM. To `COc1ccc(C(C)(C)C(NC(=O)N[C@H]2CC[C@H](O)CC2)c2nc3ccccc3[nH]2)cc1` (relative stereo) [Example 3, 1-(1-(1H-Benzo[d]imidazol-2-yl)-2-(4-methoxyphenyl)-2-methylpropyl)-3-(trans-4-hydroxycyclohexyl)urea] belongs 0.119 µM. On to `COc1ccc(C[C@@H](NC(=O)N[C@@H](C)c2ccc(F)cc2)c2nc3ccccc3[nH]2)cc1` [Example 321, 1-((R)-1-(1H-Benzo[d]imidazol-2-yl)-2-(4-methoxyphenyl)ethyl)-3-((S)-1-(4-fluorophenyl)ethyl)urea], for which the concentration giving a half-maximal response (EC50) came to 0.128 µM.

`COc1ccc(CC(NC(=O)NCc2csc(C)n2)c2nc3ccccc3[nH]2)cc1` (centres unmarked) [Example 48, 1-(1-(1H-Benzo[d]imidazol-2-yl)-2-(4-methoxyphenyl)ethyl)-3-((2-methylthiazol-4-yl)methyl)urea]: the EC50 came out at 1.01 µM. To `COc1ccc(CC(NC(=O)Nc2ccnn2-c2cccc(OC)c2)c2nc3ccccc3[nH]2)cc1` (centres unmarked) [Example 419, 1-(1-(1H-benzo[d]imidazol-2-yl)-2-(4-methoxyphenyl)ethyl)-3-(1-(3-methoxyphenyl)-1H-pyrazol-5-yl)urea] belongs 0.056 µM; to `COc1ccc(CC(NC(=O)Nc2cc(C)nn2-c2ccccc2)c2nc3ccccc3[nH]2)cc1` (centres unmarked) [Example 408, 1-(1-(1H-benzo[d]imidazol-2-yl)-2-(4-methoxyphenyl)ethyl)-3-(3-methyl-1-phenyl-1H-pyrazol-5-yl)urea], 0.02 µM. To `O=C(NC(Cc1ccc(C(F)(F)F)cc1F)c1nc2cc(F)ccc2[nH]1)NC12CCC(O)(CC1)CC2` (single isomer, unassigned; ent-1) [Example 361, 1-(1-(5-Fluoro-1H-benzo[d]imidazol-2-yl)-2-(2-fluoro-4-(trifluoromethyl)phenyl)ethyl)-3-(4-hydroxybicyclo[2.2.2]octan-1-yl)urea (ent-1)] belongs 0.0039 µM; to `COc1ccc(C[C@@H](NC(=O)NC2(c3ccc(Cl)cc3)CC2)c2nc3ccccc3[nH]2)cc1` [Example 355, (R)-1-(1-(1H-Benzo[d]imidazol-2-yl)-2-(4-methoxyphenyl)ethyl)-3-(1-(4-chlorophenyl)cyclopropyl)urea], 0.157 µM; to `COc1ccc(C[C@@H](NC(=O)NCCc2ccccc2C(F)(F)F)c2nc3ccccc3[nH]2)cc1` [Example 274, (R)-1-(1-(1H-Benzo[d]imidazol-2-yl)-2-(4-methoxyphenyl)ethyl)-3-(2-(trifluoromethyl)phenethyl)urea], 0.115 µM.

The values above are taken from patent US9663473B2 (Actelion Pharmaceuticals Ltd, priority 2013, dated 2017).
